What was measured:
AMPK signaling = experiment: AMPK activation, Western blot, MDA-MB-231 cells; type: cell-based, human; conditions: 3 h; for AMPK activation (p-AMPK): 20 μM, metformin 10 mM as comparison; for AMPK activation (phosphor-AMPKα, phosphor-Raptor), dose dependence: indicated concentrations
Experimental: (§1) In FIG. 9A, human breast cancer MDA-MB-231 cells were treated with 20 μM of EGCG, Pro-EGCG and EGCG analogs (compounds 5, 7, 23, 30 and 31), or 10 mM of metformin for 3 hrs. Cell lysates were analyzed by Western blot using antibodies of anti-AMPK, p-AMPK, PARP, p-EGFR, EGFR or β-actin. In FIG. 9B, human breast cancer MDA-MB-231 cells were treated with 20 μM of EGCG analogs 23 and 30, 10 nM of docetaxel alone, or combined treatment with compounds 23 and 30 plus docetaxel for 24 hrs. Cell lysates were analyzed by Western blot using antibodies of anti-AMPK, p-AMPK, PARP, p-EGFR, EGFR or β-actin. In FIG. 9C, cells were incubated in medium (0.1% BSA without FBS) containing 20 μM of 23, 30, 2.5 μM of Erlotinib (Eb) alone or the combinations as indicated for 24 hrs. Cell lyses were analyzed by Western blot using antibodies of anti-AMPK, p-AMPK, PARP, p-EGFR, EGFR or β-actin.
(A) EGCG analogs 23 and 30 inhibited breast cancer cell proliferation. MDA-MB-231 cells were treated with indicated concentrations of 23, 30 or metformin for 24 h, followed by a MTT assay. *, P<0.1; **, P<0.01. Columns, mean of three experiments; bars, SD. (B) EGCG analogs 23 and 30 activated AMPK at a dose-dependent manner, measured by elevated level of phosphor-AMPKα and its downstream proteins of phosphor-Raptor. […] MDA-MB-231 cells were treated with indicated concentrations of 23 or 30 for 3 h, followed by Western blot analysis with the indicated antibodies. The numbers underneath the Western results of p-AMPKα indicated normalized phosphor-AMPKα/β-actin ratios. […]
A whole cell extract was prepared from the treated cells as described by Landis-Piwowar et al. Cancer Res. (2007) 67, 4303, Chen et al. Cancer Res. (2007) 67, 1636, and Chen et al. Biochem. Pharm. (2005) 69, 1421. Cell extracts (30 μg) were separated by an SDS-PAGE gel and transferred to nitrocellulose membranes. The membrances were blotted by specific antibodies including anti-AMPK, p-AMPK, EGFR, p-EGFR (Cell Signaling Tech., Danvers, Mass.), PARP (Enzo Life Sciences, Plymouth Meeting, Pa.), actin (Santa Cruz Biotechnology, Santa Cruz, Calif.). The membranes were visualized by enhanced chemiluminescence, as described previously by Landis-Piwowar et al. Cancer Res. (2007) 67, 4303, Chen et al. Cancer Res. (2007) 67, 1636, and Chen et al. Biochem. Pharm. (2005) 69, 1421.
(§2) The Western blot analysis was performed as follows: A whole cell extract was prepared from the treated cells as described previously (Landis-Piwowar et al., Cancer research, 2007, 67: 4303-4310; Chen et al., Cancer research, 2007, 67: 1636-1644; Chen et al., Biochemical pharmacology, 2005, 69: 1421-1432). The cell extracts (30 μg) were then separated by an SDS-PAGE gel and transferred to nitrocellulose membranes. The membrances were blotted by specific antibodies including anti-AMPK, p-AMPK, EGFR, p-EGFR (Cell Signaling Tech. Danvers, Mass.), PARP (Enzo Life Sciences, Plymouth Meeting, Pa.), actin (Santa Cruz Biotechnology, Santa Cruz, Calif.). The membranes were visualized by enhanced chemiluminescence, as described previously (Landis-Piwowar et al., Cancer research, 2007, 67: 4303-4310; Chen et al., Cancer research, 2007, 67: 1636-1644; Chen et al., Biochemical pharmacology, 2005, 69: 1421-1432).
(§3) In FIG. 9A, human breast cancer MDA-MB-231 cells were treated with 20 μM of EGCG, Pro-EGCG and other EGCG analogs (compounds 5, 7, 23, 30 and 31), or 10 mM of metformin for 3 hrs. Cell lysates were analyzed by Western blot using antibodies of anti-AMPK, p-AMPK, PARP, p-EGFR, EGFR or β-actin. In FIG. 9B, human breast cancer MDA-MB-231 cells were treated with 20 μM of EGCG analogs 23 and 30, 10 nM of docetaxel alone, or combined treatment with compounds 23 and 30 plus docetaxel for 24 hrs.

MDA-MB-231 cells [1] = experiment: Mammosphere formation assay; type: cell-based; conditions: Homo sapiens, MDA-MB-231, 168 h, 7 days
Experimental: MDA-MB-231 cells were seeded in low attached 6-well plates (1000 cells/well) and treated with indicated concentrations of 23 and 30 for 7 days, followed by calculating numbers of mammosphere (A) and taking photos of mammosphere morphology (B). Metformin and EGCG were served as control. *, P<0.1; **, P<0.01. Columns, mean of three experiments; bars, SD.
Mammosphere formation assay was performed to assess the capacity of cancer stem cell self-renewal. Single cell suspensions of MDA-MB-231 cells were thoroughly suspended and plated on ultra low adherent wells of 6-well plates (Corning, Lowell, Mass.) at 1000 cells/well in 1.5 ml of sphere formation medium (1:1 DMEM/F12 medium supplemented with 50 units/ml penicillin, […] streptomycin, B-27 and N-2). One milliliter of sphere formation medium was added every 3-4 days. After 7 days of incubation with different concentrations of EGCG analogs 23, 30 or metformin, the formed spheres were collected by centrifugation at 300 g for 5 min and counted with an inverted phase-contrast Zeiss Axiovert 25 microscope.

MDA-MB-231 cells [2] = experiment: Combination with docetaxel or erlotinib, Western blot (PARP cleavage, p-EGFR), MDA-MB-231 cells; type: cell-based, human; conditions: 24 h; for sensitization to docetaxel (apoptotic cell death, PARP cleavage): 20 μM plus 10 nM docetaxel; for sensitization to erlotinib (p-EGFR reduction, PARP cleavage): 20 μM plus 2.5 μM erlotinib
Experimental: as §1, §2, §3

O=C(O[C@@H]1Cc2c(O)cc(O)cc2O[C@@H]1c1cc(O)c(O)c(O)c1)c1cc(O)c(O)c(O)c1 [Compound 1, (−)-Epigallocatechin gallate, reference compound]
AMPK activation (p-AMPK) (AMPK signaling): can activate AMPK signaling
inhibition at 10 µM (MDA-MB-231 cells [1]): 20.1%
inhibition at 20 µM (MDA-MB-231 cells [1]): 51.3%

O=C(O[C@H]1Cc2ccccc2C[C@H]1OC(=O)c1cc(O)c(Br)c(O)c1)c1cc(O)c(Br)c(O)c1 [Compound 23]
AMPK activation (p-AMPK) (AMPK signaling): more potent AMPK activators even at lower concentration than metformin
AMPK activation (phosphor-AMPKα, phosphor-Raptor), dose dependence (AMPK signaling): activated AMPK in a dose-dependent manner
sensitization to docetaxel (apoptotic cell death, PARP cleavage) (MDA-MB-231 cells [2]): sensitize these TNBC cells to Docetaxel
sensitization to erlotinib (p-EGFR reduction, PARP cleavage) (MDA-MB-231 cells [2]): sensitize these TNBC cells to the EGFR inhibitor Erlotinib
inhibition at 10 µM (MDA-MB-231 cells [1]): 45.1%
inhibition at 20 µM (MDA-MB-231 cells [1]): 66.7%

Nc1ccc(C(=O)O[C@H]2Cc3ccccc3C[C@H]2OC(=O)c2ccc(N)cc2)cc1 [Compound 30]
AMPK activation (p-AMPK) (AMPK signaling): more potent AMPK activators even at lower concentration than metformin
AMPK activation (phosphor-AMPKα, phosphor-Raptor), dose dependence (AMPK signaling): activated AMPK in a dose-dependent manner
sensitization to docetaxel (apoptotic cell death, PARP cleavage) (MDA-MB-231 cells [2]): sensitize these TNBC cells to Docetaxel
sensitization to erlotinib (p-EGFR reduction, PARP cleavage) (MDA-MB-231 cells [2]): sensitize these TNBC cells to the EGFR inhibitor Erlotinib
inhibition at 10 µM (MDA-MB-231 cells [1]): 52.2%
inhibition at 20 µM (MDA-MB-231 cells [1]): 73.3%
